# Laboratory results reported in patent US6355662B1, “Non-peptidyl inhibitors of a VLA-4 dependent cell binding useful in treating inflammatory, autoimmune, and respiratory diseases” (Pfizer Inc, priority 1998, dated 2002).
row,SMILES,melting point [°C]
1,"CC(C)CC(NC(=O)Cc1ccc(NC(=O)Nc2ccccn2)cc1)c1ncc(CCC(=O)O)s1 (stereo not shown) [Example 11, [2-(3-Methyl-1-{2-[4-(3-pyridin-2-yl-ureido)-phenyl]-acetylamino}-butyl)-thiazol-5-yl]-propionic acid]",173 to 175
2,"Cc1ccccc1NC(=O)Nc1ccc(CC(=O)NC(CC(C)C)c2ncc(CCC(=O)O)o2)cc1 (stereo not shown) [Example 8, [2-(3-Methyl-1-{2-[4-(3-o-tolyl-ureido)-phenyl]-acetylamino}-butyl)oxazol-5-yl]-propionic acid]",168 to 170
3,"Cc1ccccc1NC(=O)Nc1ccc(CC(=O)NC(CC(C)C)c2cc(/C=C/C(=O)O)on2)cc1 (stereo not shown) [Example 18, 3-[3-(3-Methyl-1-{2-[4-(3-o-tolyl-ureido)-phenyl]-acetylamino}-butyl)-isoxazol-5-yl]-acrylic acid]",136 to 138
4,"CC(C)CC(NC(=O)Cc1ccc(NC(=O)Nc2ccccc2Cl)cc1)c1cc(CCC(=O)O)on1 (stereo not shown) [Example 24, 3-{3-[1-(2-{4-[3-(2-Chloro-phenyl)-ureido]-phenyl}-acetylamino)-3-methyl-butyl]-isoxazol-5-yl}propionic acid]",143 to 145
5,"CC(C)CC(NC(=O)Cc1ccc(NC(=O)Nc2c(Cl)cccc2Cl)cc1)c1ncc(CCC(=O)O)s1 (stereo not shown) [Example 19, 3-{2-[1-(2-{4-[3-(2,6-Dichloro-phenyl)-ureido]-phenyl}-acetylamino)-3-methyl-butyl]-thiazol-5-yl}-propionic acid]",148 to 150
6,"COc1ccccc1NC(=O)Nc1ccc(CC(=O)NC(CC(C)C)c2ncc(CCC(=O)O)s2)cc1 (stereo not shown) [Example 16, 3-{2-[1-(2-{4-[3-(2-Methoxy-phenyl)-ureido]-phenyl}-acetylamino)-3-methyl-butyl]-thiazol-5-yl}-propionic acid]",197 to 198
7,"Cc1ccccc1NC(=O)Nc1ccc(CC(=O)NC2(c3cc(CCC(=O)O)on3)CCCC2)cc1 [Example 9, 3-[3-(1-{2-[4-(3-o-Tolyl-ureido)-phenyl]-acetylamino}-cyclopentyl)-isoxazol-5-yl]-propionic acid]",195 to 197
8,"CCOC(=O)CC(=O)c1cc(C(CC(C)C)NC(=O)Cc2ccc(NC(=O)Nc3ccccc3Cl)cc2)no1 (stereo not shown) [Example 26, 3-{3-[1-(2-{4-[3-(2-Chloro-phenyl)-ureido]-phenyl}-acetylamino)-3-methyl-butyl]-isoxazol-5-yl}-3-oxo-propionic acid ethyl ester]",150 to 152
9,"CC(C)CC(NC(=O)Cc1ccc(NC(=O)Nc2ccccc2Cl)cc1)c1ncc(CCC(=O)O)s1 (stereo not shown) [Example 15, 3-{2-[1-(2-{4-[3-(2-Chloro-phenyl)-ureido]-phenyl}-acetylamino)-3-methyl-butyl]-thiazol-5-yl}-propionic acid]",173 to 175
10,"Cc1ccccc1NC(=O)Nc1ccc(CC(=O)N2CCN(CCC(=O)O)C(=O)C2Cc2ccccc2)cc1 (stereo not shown) [Example 4, (3-Benzyl-2-oxo-4-{[4-(3-o-tolyl-ureido)-phenyl]-acetyl}-piperazin-1-yl)-propionic acid]",103 to 105
11,"CC(C)CC(NC(=O)Cc1ccc(NC(=O)Nc2ccccc2F)cc1)c1ncc(CCC(=O)O)s1 (stereo not shown) [Example 17, 3-{2-[1-(2-{4-[3-(2-Fluoro-phenyl)-ureido]-phenyl}-acetylamino)-3-methyl-butyl]-thiazol-5-yl}-propionic acid]",83 to 85
12,"Cc1ccccc1NC(=O)Nc1ccc(CC(=O)NC(CC(C)C)C2=NOC(CCC(=O)O)(CCC(=O)O)C2)cc1 (stereo not shown) [Example 6, 3-[5-(2-Carboxy-ethyl)-3-(3-methyl-1-{2-[4-(3-o-tolyl-ureido)-phenyl]-acetylamino}-butyl)-4,5dihydro-isoxazol-5-yl]-propionic acid]",173 to 175
13,"CC(C)CC(NC(=O)Cc1ccc(NC(=O)Nc2ccccc2)cc1)c1ncc(CCC(=O)O)s1 (stereo not shown) [Example 22, 3-[2-(3-Methyl-1-{2-[4-(3-phenyl-ureido)-phenyl]-acetylamino}-butyl)-thiazol-5-yl]-propionic acid]",146 to 148
14,"Cc1cccc(Cl)c1NC(=O)Nc1ccc(CC(=O)NC(CC(C)C)c2ncc(CCC(=O)O)s2)cc1 (stereo not shown) [Example 21, 3-{2-[1-(2-{4-[3-(2-Chloro-6-methyl-phenyl)-ureido]-phenyl}-acetylamino)-3-methyl-butyl]-thiazol-5-yl}-propionic acid]",160 to 162
15,"Cc1cccc(C)c1NC(=O)Nc1ccc(CC(=O)NC(CC(C)C)c2ncc(CCC(=O)O)s2)cc1 (stereo not shown) [Example 20, 3-{2-[1-(2-{4-[3-(2,6-Dimethyl-phenyl)-ureido]-phenyl}-acetylamino)-3-methyl-butyl]-thiazol-5-yl}-propionic acid]",125 to 127
16,"CC(C)CC(NC(=O)Cc1ccc(NC(=O)Nc2ccccn2)cc1)c1cc(CCC(=O)O)on1 (stereo not shown) [Example 10, [3-(3-Methyl-1-{2-[4-(3-pyridin-2-yl-ureido)-phenyl]-acetylamino}-butyl)-isoxazol-5-yl]-propionic acid]",159 to 161
